Tests used:
[1] = biological target: Serine/threonine-protein kinase 10 (Homo sapiens) (UniProt O94804)
[2] = biological target: Serine/threonine-protein kinase 25 (Homo sapiens) (UniProt O00506)
[3] = biological target: Serine/threonine-protein kinase PAK 6 (Homo sapiens) (UniProt Q9NQU5)
[4] = biological target: Serine/threonine-protein kinase 26 (Homo sapiens) (UniProt Q9P289)
[5] = biological target: Calcium/calmodulin-dependent protein kinase type II subunit gamma (Homo sapiens) (UniProt Q13555)
Sequence of Calcium/calmodulin-dependent protein kinase type II subunit gamma (Homo sapiens) (Q13555 whole entry): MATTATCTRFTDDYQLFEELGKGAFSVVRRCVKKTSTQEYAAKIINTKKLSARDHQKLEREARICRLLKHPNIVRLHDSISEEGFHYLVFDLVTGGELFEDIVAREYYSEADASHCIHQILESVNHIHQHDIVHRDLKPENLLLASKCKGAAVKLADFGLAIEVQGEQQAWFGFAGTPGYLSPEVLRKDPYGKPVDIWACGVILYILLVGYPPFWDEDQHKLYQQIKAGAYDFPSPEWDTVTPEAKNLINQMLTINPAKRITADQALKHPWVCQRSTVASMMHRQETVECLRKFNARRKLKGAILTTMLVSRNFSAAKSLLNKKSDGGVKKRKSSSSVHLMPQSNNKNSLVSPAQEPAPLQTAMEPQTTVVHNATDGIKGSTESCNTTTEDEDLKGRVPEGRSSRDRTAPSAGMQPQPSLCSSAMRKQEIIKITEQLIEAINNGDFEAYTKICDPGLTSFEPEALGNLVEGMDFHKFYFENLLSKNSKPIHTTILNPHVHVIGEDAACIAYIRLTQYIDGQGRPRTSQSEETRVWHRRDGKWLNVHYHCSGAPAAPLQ

[6] = biological target: Serine/threonine-protein kinase 26 (Homo sapiens) (UniProt Q9P289); remark: listed apart in the source
[7] = biological target: Dual specificity mitogen-activated protein kinase kinase 2 (Homo sapiens, UniProt P36507)
[8] = biological target: Dual specificity protein kinase CLK1 (Homo sapiens) (UniProt P49759)
Sequence of Dual specificity protein kinase CLK1 (Homo sapiens) (P49759 whole entry, looked up, canonical isoform): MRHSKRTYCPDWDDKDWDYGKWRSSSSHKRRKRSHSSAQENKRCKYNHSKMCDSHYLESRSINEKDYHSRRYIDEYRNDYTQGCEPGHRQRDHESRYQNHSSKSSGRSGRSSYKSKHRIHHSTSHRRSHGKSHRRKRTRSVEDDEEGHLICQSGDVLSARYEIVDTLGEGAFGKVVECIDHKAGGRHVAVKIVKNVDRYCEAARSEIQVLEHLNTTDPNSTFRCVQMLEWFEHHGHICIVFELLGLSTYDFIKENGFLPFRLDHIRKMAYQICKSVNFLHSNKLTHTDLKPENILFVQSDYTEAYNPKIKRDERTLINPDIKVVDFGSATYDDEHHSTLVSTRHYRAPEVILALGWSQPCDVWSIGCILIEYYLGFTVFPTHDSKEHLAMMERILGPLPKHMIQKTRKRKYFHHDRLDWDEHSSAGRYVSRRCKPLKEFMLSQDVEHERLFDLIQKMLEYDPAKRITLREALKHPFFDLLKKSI

[9] = biological target: Casein kinase I isoform gamma-2 (Homo sapiens) (UniProt P78368)
Sequence of Casein kinase I isoform gamma-2 (Homo sapiens) (P78368 whole entry, looked up, canonical isoform): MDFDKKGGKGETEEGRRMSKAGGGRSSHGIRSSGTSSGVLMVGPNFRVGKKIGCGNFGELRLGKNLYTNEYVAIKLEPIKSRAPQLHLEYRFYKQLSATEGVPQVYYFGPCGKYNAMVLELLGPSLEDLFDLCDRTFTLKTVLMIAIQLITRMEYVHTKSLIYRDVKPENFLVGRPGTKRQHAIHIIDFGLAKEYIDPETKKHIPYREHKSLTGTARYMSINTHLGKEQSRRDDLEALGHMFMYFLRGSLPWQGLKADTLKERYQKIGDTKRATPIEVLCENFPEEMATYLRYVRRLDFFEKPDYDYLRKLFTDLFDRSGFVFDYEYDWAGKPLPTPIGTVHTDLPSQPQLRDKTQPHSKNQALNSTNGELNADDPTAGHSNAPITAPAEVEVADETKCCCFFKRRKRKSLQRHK

[10] = biological target: Calcium/calmodulin-dependent protein kinase type II subunit alpha (Homo sapiens) (UniProt Q9UQM7)
[11] = biological target: T1, Mitogen-activated protein kinase kinase kinase 5 (Homo sapiens) (UniProt Q99683)
T1 sequence (whole entry): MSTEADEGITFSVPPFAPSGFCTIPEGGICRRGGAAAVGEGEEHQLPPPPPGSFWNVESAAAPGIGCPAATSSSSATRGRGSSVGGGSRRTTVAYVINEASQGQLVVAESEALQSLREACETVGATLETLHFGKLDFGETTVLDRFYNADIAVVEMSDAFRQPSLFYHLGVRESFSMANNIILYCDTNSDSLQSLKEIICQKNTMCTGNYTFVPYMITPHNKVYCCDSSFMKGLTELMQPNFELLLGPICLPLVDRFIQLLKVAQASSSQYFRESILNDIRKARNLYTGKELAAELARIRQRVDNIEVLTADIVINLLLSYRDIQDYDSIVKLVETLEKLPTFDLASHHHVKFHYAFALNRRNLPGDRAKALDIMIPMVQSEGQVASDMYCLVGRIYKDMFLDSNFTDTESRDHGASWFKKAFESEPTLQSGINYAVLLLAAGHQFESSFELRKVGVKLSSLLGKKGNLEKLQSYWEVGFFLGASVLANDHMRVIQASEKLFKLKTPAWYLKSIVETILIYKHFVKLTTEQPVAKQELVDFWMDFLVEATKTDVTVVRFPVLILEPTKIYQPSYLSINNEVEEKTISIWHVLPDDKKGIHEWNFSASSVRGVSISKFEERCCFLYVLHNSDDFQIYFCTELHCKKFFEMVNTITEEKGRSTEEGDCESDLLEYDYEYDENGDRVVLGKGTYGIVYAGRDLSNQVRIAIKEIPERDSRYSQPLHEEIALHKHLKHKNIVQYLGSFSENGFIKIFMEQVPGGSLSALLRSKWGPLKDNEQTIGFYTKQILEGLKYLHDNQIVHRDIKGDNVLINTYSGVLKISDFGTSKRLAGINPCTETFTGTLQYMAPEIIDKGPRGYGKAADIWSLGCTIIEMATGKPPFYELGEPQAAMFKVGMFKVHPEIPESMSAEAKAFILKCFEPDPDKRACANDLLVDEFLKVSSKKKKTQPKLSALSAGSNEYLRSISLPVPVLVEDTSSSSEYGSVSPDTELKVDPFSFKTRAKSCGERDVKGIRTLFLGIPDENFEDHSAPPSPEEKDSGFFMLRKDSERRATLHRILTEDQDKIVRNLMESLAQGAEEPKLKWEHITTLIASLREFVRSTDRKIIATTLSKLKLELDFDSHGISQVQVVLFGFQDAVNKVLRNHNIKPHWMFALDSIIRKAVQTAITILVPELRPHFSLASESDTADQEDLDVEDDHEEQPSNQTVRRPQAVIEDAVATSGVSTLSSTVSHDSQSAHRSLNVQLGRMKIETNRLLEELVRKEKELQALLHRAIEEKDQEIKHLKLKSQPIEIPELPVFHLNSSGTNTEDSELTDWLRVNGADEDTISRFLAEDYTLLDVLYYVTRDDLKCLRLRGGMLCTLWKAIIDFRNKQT

[12] = biological target: Cyclin-dependent kinase 2 (Homo sapiens, UniProt P24941)
[13] = biological target: T2, Serine/threonine-protein kinase Nek2 (Homo sapiens) (UniProt P51955)
T2 sequence (whole entry): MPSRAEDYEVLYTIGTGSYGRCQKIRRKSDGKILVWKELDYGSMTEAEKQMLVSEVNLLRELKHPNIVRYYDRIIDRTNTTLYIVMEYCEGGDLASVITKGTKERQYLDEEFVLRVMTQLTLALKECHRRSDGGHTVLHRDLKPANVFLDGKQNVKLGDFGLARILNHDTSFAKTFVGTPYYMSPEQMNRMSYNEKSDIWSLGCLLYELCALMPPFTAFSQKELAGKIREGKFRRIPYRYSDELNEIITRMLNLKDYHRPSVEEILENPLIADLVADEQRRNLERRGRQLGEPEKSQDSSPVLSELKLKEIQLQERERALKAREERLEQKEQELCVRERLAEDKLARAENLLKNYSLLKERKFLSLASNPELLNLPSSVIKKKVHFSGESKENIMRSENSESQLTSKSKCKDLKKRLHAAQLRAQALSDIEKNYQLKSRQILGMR

[14] = biological target: Glycogen synthase kinase-3 beta (Homo sapiens, UniProt P49841)
[15] = biological target: Cyclin-dependent kinase-like 1 (Homo sapiens) (UniProt Q00532)
[16] = biological target: Calcium/calmodulin-dependent protein kinase type II subunit delta (Homo sapiens) (UniProt Q13557)
Sequence of Calcium/calmodulin-dependent protein kinase type II subunit delta (Homo sapiens) (Q13557 whole entry): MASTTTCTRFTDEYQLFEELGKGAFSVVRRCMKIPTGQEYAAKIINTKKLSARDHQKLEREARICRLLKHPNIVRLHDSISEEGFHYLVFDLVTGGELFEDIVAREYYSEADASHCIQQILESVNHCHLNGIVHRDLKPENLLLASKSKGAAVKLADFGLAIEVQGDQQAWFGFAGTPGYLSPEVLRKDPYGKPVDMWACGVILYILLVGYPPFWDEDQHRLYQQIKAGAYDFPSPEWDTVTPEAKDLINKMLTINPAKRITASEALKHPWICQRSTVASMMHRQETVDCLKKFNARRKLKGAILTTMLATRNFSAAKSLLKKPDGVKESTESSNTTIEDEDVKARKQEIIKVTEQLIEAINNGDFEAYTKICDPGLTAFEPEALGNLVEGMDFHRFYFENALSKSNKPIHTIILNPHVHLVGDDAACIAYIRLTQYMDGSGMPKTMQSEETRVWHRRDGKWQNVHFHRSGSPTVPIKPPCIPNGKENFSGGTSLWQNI

[17] = biological target: TRAF2 and NCK-interacting protein kinase (Homo sapiens) (UniProt Q9UKE5)
[18] = biological target: Serine/threonine-protein kinase PLK1 (Homo sapiens) (UniProt P53350)
Sequence of Serine/threonine-protein kinase PLK1 (Homo sapiens) (P53350 whole entry): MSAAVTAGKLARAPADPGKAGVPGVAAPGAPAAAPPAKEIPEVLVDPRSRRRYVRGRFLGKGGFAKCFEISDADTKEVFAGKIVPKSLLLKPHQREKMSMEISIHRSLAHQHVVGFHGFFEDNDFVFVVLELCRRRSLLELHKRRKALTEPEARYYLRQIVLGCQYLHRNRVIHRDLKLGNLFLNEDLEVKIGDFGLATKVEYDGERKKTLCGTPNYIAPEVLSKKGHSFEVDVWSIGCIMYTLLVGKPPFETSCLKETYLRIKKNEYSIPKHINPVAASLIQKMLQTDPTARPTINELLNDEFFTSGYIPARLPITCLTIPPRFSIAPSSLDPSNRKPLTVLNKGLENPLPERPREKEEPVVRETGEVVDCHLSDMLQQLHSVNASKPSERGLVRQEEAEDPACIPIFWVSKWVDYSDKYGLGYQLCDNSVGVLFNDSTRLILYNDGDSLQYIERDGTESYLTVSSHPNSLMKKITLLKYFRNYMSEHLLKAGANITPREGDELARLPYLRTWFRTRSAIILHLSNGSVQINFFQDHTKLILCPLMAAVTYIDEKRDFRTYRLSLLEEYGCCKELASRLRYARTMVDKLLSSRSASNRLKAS

[19] = biological target: Serine/threonine-protein kinase pim-1 (Homo sapiens) (UniProt P11309)
Sequence of Serine/threonine-protein kinase pim-1 (Homo sapiens) (P11309 whole entry, looked up): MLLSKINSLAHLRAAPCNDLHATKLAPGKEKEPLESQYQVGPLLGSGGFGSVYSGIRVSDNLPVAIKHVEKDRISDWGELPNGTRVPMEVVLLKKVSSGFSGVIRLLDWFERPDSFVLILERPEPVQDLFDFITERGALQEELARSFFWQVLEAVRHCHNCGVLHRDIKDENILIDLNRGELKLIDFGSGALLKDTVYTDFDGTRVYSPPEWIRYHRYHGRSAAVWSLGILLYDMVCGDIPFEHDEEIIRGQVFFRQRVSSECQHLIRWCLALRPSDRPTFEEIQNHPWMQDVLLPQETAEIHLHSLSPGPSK

Sequence of Serine/threonine-protein kinase 10 (Homo sapiens) (O94804 whole entry, looked up): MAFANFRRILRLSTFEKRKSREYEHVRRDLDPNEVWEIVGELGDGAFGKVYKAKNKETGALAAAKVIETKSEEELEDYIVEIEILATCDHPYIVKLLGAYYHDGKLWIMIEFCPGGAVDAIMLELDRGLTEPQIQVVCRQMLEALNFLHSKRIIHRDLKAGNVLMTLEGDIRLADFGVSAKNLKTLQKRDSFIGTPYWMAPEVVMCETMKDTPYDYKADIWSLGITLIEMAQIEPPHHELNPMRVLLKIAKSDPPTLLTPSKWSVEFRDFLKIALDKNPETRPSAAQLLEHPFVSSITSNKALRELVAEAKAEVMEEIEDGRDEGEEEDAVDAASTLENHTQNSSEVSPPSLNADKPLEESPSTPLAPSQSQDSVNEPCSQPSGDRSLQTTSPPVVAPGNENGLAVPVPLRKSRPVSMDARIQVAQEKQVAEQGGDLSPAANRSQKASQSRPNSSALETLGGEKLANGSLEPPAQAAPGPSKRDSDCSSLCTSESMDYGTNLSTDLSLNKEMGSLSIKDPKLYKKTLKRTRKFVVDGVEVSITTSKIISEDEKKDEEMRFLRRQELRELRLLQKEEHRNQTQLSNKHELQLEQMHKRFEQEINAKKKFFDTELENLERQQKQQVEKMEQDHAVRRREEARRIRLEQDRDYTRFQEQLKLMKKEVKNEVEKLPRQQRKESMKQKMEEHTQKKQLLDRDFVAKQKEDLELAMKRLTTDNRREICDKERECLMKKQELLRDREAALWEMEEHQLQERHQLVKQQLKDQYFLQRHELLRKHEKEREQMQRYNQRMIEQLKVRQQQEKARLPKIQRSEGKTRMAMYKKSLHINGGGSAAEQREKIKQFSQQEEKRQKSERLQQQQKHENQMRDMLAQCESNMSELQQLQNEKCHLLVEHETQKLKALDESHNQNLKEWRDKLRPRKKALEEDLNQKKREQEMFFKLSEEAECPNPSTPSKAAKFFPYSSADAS
Sequence of Serine/threonine-protein kinase 26 (Homo sapiens) (Q9P289 2-416 limits assumed): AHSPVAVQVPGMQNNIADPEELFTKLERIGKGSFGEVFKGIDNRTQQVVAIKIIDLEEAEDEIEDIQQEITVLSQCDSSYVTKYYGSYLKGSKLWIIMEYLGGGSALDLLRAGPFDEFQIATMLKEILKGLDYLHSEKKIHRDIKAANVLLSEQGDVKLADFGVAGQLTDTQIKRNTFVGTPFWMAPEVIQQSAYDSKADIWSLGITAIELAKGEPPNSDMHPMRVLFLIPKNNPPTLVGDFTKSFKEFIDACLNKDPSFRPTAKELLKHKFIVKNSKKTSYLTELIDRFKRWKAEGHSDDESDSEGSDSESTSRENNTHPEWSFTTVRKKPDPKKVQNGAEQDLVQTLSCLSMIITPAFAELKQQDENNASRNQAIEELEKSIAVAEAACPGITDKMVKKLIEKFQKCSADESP
Sequence of Serine/threonine-protein kinase 25 (Homo sapiens) (O00506 whole entry, looked up): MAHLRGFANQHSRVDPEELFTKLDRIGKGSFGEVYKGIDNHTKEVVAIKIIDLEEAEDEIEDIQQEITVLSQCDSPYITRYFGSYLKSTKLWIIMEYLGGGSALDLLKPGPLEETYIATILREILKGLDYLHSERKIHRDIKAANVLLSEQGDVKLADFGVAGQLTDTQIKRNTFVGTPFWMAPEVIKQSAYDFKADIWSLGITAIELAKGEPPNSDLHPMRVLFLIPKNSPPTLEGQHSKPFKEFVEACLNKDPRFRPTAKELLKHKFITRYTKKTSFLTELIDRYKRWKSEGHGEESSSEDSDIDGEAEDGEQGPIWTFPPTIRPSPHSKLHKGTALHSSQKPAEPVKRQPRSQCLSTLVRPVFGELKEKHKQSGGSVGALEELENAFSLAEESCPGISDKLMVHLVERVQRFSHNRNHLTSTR

| SMILES | ΔTm [1] | ΔTm [2] | ΔTm [3] | ΔTm [4] | ΔTm [5] | ΔTm [6] | ΔTm [7] | ΔTm [8] | ΔTm [9] | ΔTm [10] | ΔTm [11] | ΔTm [12] | ΔTm [13] | ΔTm [14] | ΔTm [15] | ΔTm [16] | ΔTm [17] | ΔTm [18] | ΔTm [19] |
| --- | --- | --- | --- | --- | --- | --- | --- | --- | --- | --- | --- | --- | --- | --- | --- | --- | --- | --- | --- |
| C[S+]([O-])c1ccc(CSc2nc(-c3ccc(F)cc3)c(-c3ccncc3)[nH]2)cc1 (centres undefined) | 0.8 °C | 0.6 °C | 0 °C | 0 °C | -0.1 °C | 0.4 °C | -0.4 °C | -0.5 °C | 0.9 °C | -0.1 °C | 0.9 °C | 0.5 °C | 0.5 °C | 0 °C | 0.2 °C | 0 °C | 0.1 °C | -0.2 °C | -2 °C |
| Cc1nc2sccn2c(=O)c1CCN1CCC(=C(c2ccccc2)c2ccc(F)cc2)CC1 | 3.1 °C | 0.3 °C | 0.8 °C | 0.4 °C | 1.1 °C | -0.1 °C | 1.8 °C | 6.5 °C | 0.3 °C | 1.3 °C | 5.8 °C | 1.2 °C | 0.1 °C | 2.6 °C | 0.4 °C | -0.4 °C | 2.9 °C | 0.6 °C | 6.6 °C |
| C[S+]([O-])c1ccc(-c2nc(-c3ccc(F)cc3)c(-c3ccncc3)[nH]2)cc1 (centres undefined) [SB-203580] | 2.7 °C | 0.9 °C | 0 °C | -0.4 °C | 0 °C | -0.5 °C | 0.2 °C | -0.3 °C | 0.7 °C | 0.3 °C | 0.3 °C | -0.1 °C | 0.3 °C | 3.5 °C | -0.4 °C | -0.3 °C | 2 °C | 0.2 °C | -2.1 °C |
| C=CNC#N | -0.3 °C | 0.4 °C | 0.5 °C | 1.5 °C | 0.5 °C | -1.4 °C | 1.8 °C | 0.8 °C | 0.1 °C | 0.7 °C | 0.4 °C | -0.2 °C | 2.1 °C | 0.5 °C | -0.1 °C | 0.7 °C | 0.1 °C | 0.1 °C | 0.1 °C |
| CN(C)c1ncnc2nc[nH]c12 [DIMETHYLADENINE] | -0.4 °C | 0.9 °C | -0.3 °C | 0 °C | 0 °C | 0.1 °C | -0.2 °C | 1.3 °C | 0.5 °C | 1.7 °C | 2.8 °C | 0.3 °C | 0.8 °C | 0.7 °C | 0 °C | -0.2 °C | 0 °C | 0.5 °C | 0 °C |
| COc1cc(C[C@H]2C(=O)OC[C@@H]2Cc2ccc(OC)c(OC)c2)ccc1O [ARCTIGENIN] | 0.7 °C | 0.1 °C | 0.1 °C | 0.2 °C | 0.3 °C | -0.3 °C | 0 °C | -1 °C | 0.1 °C | 0.1 °C | 0.2 °C | 0.6 °C | 1.1 °C | -0.2 °C | -0.1 °C | 0.2 °C | -0.2 °C | 0.1 °C | -0.3 °C |
| O=C1c2ccccc2-[n+]2ccc3c([nH]c4ccccc43)c21 [FASCAPLYSIN CHLORIDE] | -1.8 °C | -1.5 °C | -0.9 °C | -2.5 °C | -1.8 °C | -0.8 °C | -0.8 °C | -1.9 °C | -0.3 °C | -0.5 °C | -2.6 °C | 0 °C | -2 °C | 0.1 °C | -0.5 °C | -2.9 °C | -0.9 °C | 0.8 °C | -0.8 °C |
| O=c1cc(N2CCOCC2)oc2c1ccc1ccccc12 | 0.4 °C | 0.6 °C | -0.3 °C | 0.2 °C | 0.2 °C | 0.5 °C | 0.1 °C | 0.8 °C | 0.6 °C | 0.3 °C | 1.2 °C | 0.5 °C | 0.6 °C | 1.1 °C | 0.1 °C | -0.2 °C | 0.3 °C | 2.3 °C | 1.7 °C |
| COc1cc(/C=C/C(=O)CC(=O)/C=C/c2ccc(O)c(OC)c2)ccc1O [CURCUMIN] | 6.1 °C | 4.4 °C | 1.6 °C | 2.9 °C | -0.2 °C | 1.7 °C | 2.8 °C | 7.9 °C | 2.3 °C | -0.1 °C | 3.1 °C | 1.9 °C | 1.1 °C | 3.4 °C | 3.9 °C | 0.1 °C | 5.9 °C | 2 °C | 2.5 °C |
| CC(=O)O/N=C1/C(=C2/C(=O)Nc3cc(Br)ccc32)Nc2ccccc21 [6-BROMOINDIRUBIN-3'-ACETOXIME] | 0 °C | 1.1 °C | 0.3 °C | 0.1 °C | 2.4 °C | -0.4 °C | 3.1 °C | -0.3 °C | 0.5 °C | 0.9 °C | -0.2 °C | 3.2 °C | 1.9 °C | 9.4 °C | 3.2 °C | -0.3 °C | 0.4 °C | 0.4 °C | -0.2 °C |
| CCN(CC)CCNC(=O)c1c(C)[nH]c(/C=C2\C(=O)Nc3ccc(Cl)cc32)c1C [SU-11652] | 8.1 °C | 7.4 °C | 4.4 °C | 5.8 °C | 6.2 °C | 3.8 °C | 6.3 °C | 6.6 °C | 4 °C | 5.7 °C | 6.3 °C | 0.9 °C | 5.1 °C | 3.8 °C | 0.2 °C | 2.3 °C | 8.3 °C | 0.5 °C | 2.9 °C |

Source: ChEMBL document CHEMBL1145498, “A systematic interaction map of validated kinase inhibitors with Ser/Thr kinases” (Proc Natl Acad Sci U S A, 2007)
